Assay results as given in patent US20170129864A1, “NEW SIGMA-RECEPTORS LIGANDS WITH ANTI-APOPTOTIC AND/OR PRO-APOPTOTIC PROPERTIES, OVER CELLULAR BIOCHEMICAL MECHANISMS WITH NEUROPROTECTIVE, ANTI-CANCER, ANTI-METASTATIC AND ANTI-(CHRONIC) INFLAMMATORY ACTION” (Anavex Life Sciences Corp., priority 2007, published 2017).
Values belong to the compound of their own block, whether it stands above or below them.

What was measured:
[1] = test system: mice; test: forced swimming test; assay type: in vivo; set-up: dose or concentration left out as unconfirmed; details: forced swimming test in mice
[2] = molecular target: T1, σ-2 receptors (Homo sapiens, UniProt Q5BJF2); test: agonistic action for σ-2
[3] = molecular target: T1, σ-2 receptors; test: affinity for σ-2 receptors; assay type: binding
[4] = test system: cancer cells; test: cytotoxic action on cancer cells via apoptosis; assay type: cell-based; details: depending on the cell line used
[5] = test system: scopolamine and dizocilpine (MK-801) induced amnesia or amyloid peptide β25-35 (Aβ25-35); test: anti-amnesic action against scopolamine, dizocilpine (MK-801) or Aβ25-35 induced amnesia; assay type: in vivo; details: per os (po), in mice
[6] = test system: anoxia that is caused by pentylenetetrazole (PTZ); test: protection against pentylenetetrazole (PTZ) induced anoxia and tonic crises; assay type: in vivo, mice
[7] = test system: Aβ25-35 induced neutotoxicity and oxidative stress; test: Aβ25-35 induced neurotoxicity and oxidative stress; assay type: in vivo; details: 0.03-1 mg/kg, i.p
[8] = molecular target: σ-1 receptors (Homo sapiens, UniProt Q99720); test: agonistic or antagonistic action on σ-1 receptors
σ-1 receptors, sequence (Q99720 whole entry): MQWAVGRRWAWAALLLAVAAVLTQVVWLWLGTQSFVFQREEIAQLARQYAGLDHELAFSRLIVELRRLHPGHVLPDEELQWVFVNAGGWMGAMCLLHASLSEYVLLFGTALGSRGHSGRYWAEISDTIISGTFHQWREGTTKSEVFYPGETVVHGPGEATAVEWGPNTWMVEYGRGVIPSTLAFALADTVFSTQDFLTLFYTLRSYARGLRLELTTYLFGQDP

T1 sequence (Q5BJF2 whole entry): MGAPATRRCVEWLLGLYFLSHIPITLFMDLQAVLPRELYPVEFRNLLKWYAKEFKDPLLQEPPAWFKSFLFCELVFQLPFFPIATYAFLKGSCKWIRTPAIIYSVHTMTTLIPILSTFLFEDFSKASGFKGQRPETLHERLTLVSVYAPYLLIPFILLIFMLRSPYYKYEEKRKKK

concentration at which agonistic action for σ-2 is shown [2]: over 10 μM
Ki [3]: > 10 µM
affinity for σ-2 receptors, times lower than for σ-1 ([3]; σ-2 versus σ-1): more than 100 times
SMILES: CN(C)CC1COC(c2ccccc2)(c2ccccc2)C1 (stereo not drawn) [AE14, Tetrahydro-N,N,-dimethyl-5,5-diphenyl-3-furanomethanamine]
anti-immobility action [1]: very strong anti-immobility action
concentration at which cytotoxic action on cancer cells is shown [4]: over 200 μM
anti-amnesic action, active doses from [5]: ≥ 0.03 mg/kg

affinity for σ-2 receptors [3]: no affinity
SMILES: CN(C)CC1CCOC1(c1ccccc1)c1ccccc1 (stereo not drawn) [AE37, tetrahydro-N,N-dimethyl-2,2-diphenyl-3-furanomethanamine]
activity against Aβ25-35 induced neurotoxicity and oxidative stress [7]: very performant

action on σ-1 receptors [8]: weak agonists
SMILES: CN(C)CC1COC(c2ccccc2)(C23CC4CC(CC(C4)C2)C3)C1 (stereo not drawn) [AdPhAE, 5-(TRICYCLO[3.3.1.13,7]DEC-1-YL)-TETRAHYDRO-N,N-DIMETHYL-5-PHENYL-3-FURANEMETHANAMINE-]

The next lines start with the compound.

SMILES: CNCC1CCOC1(c1ccccc1)c1ccccc1 (stereo not drawn) [AE37 Met, tetrahydro-N-methyl-2,2-diphenyl-3-furanomethanamine]
protection against anoxia caused by pentylenetetrazole (PTZ) ([6]; in mice): exceptional protection
activity relative to AE37 for the properties mentioned ([6]; mainly neuroprotective action): slightly more active than AE37

SMILES: CN(C)CC1COC2(C1)C1CC3CC(C1)CC2C3 (stereo not drawn) [AdAE, (DIHYDRO-4-(DIMETHYLAMINOMETHYL)SPIRO{FURANE-2(3H), 2′TRICYCLO[3.3.1.13,7]DECANE}]
action on σ-1 receptors [8]: weak agonists
